From patent publication US10918645B2 (LIFEARC, priority 2016, dated 2021)

Experiments:
Format in all cases: biochemical
Details in all cases: 1 μM inhibitor concentration
PKBa = PKBa (Homo sapiens (Human), UniProt P31749, S473D); test: PKBa kinase selectivity assay
Experimental: ΔPH-PKBa-S473D (5-20 mU diluted in 50 mM Tris pH 7.5, 0.1 mM EGTA, 0.1% b-mercaptoethanol, 1 mg/ml BSA) is assayed against a modified Crosstide peptide […] in a final volume of 25.5 μl containing 50 mM Tris pH 7.5, 0.05% b-mercaptoethanol, 30 μM substrate peptide, 10 mM magnesium acetate and 0.005 mM [33P-g-ATP](50-1000 cpm/pmole) and incubated for 30 min at room temperature. Assays are stopped by addition of 5 μl of 0.5 M (3%) orthophosphoric acid and then harvested onto P81 Unifilter plates with a wash buffer of 50 mM orthophosphoric acid.

RIPK2 = RIPK2 (Homo sapiens (Human), UniProt O43353); test: RIPK2 kinase selectivity assay
Experimental: (§1) RIPK2 (5-20 mU diluted in 50 mM Tris pH 7.5, 0.1 mM EGTA, 0.1% β-mercaptoethanol, 1 mg/ml BSA) is assayed against MBP in a final volume of 25.51 μl containing 50 mM Tris pH 7.5, 0.1 mM EGTA, 0.33 mg/ml MBP, 10 mM magnesium acetate and 0.02 mM [33P-γ-ATP] (50-1000 cpm/pmole) and incubated for 30 min at room temperature. Assays are stopped by addition of 5 μl of 0.5 M (3%) orthophosphoric acid and then harvested onto P81 Unifilter plates with a wash buffer of 50 mM orthophosphoric acid.

CHK2 = CHK2 (Homo sapiens (Human), UniProt O96017); test: CHK2 kinase selectivity assay
Sequence of CHK2 (O96017 whole entry, species assumed): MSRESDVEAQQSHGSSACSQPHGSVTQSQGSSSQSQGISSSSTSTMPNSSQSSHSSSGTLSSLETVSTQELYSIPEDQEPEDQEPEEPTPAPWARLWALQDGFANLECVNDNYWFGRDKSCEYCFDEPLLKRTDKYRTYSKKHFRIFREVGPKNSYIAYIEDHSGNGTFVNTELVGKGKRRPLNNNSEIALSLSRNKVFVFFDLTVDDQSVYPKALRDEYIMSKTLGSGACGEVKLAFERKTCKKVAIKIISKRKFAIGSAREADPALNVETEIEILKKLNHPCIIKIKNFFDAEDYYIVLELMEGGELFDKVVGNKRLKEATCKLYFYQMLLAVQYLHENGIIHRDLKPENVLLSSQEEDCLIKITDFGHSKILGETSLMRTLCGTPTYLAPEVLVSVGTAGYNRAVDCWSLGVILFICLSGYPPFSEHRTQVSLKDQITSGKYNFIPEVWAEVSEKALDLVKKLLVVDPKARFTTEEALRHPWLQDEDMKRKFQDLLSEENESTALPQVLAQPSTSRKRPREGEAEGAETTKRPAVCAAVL
Experimental: CHK2 (5-20 mU diluted in 20 mM MOPS pH 7.5, 1 mM EDTA, 0.1% b-mercaptoethanol, 0.01% Brij-35, 5% glycerol, 1 mg/ml BSA) is assayed against CHKtide substrate peptide ([…]) in a final volume of 25.5 μl containing 8 mM MOPS pH 7.0, 0.2 mM EDTA, 200 μM CHKtide, 10 mM magnesium acetate and 0.02 mM [33P-g-ATP](50-1000 cpm/pmole) and incubated for 30 min at room temperature Assays are stopped by addition of 5 μl of 0.5 M (3%) orthophosphoric acid and then harvested onto P81 Unifilter plates with a wash buffer of 50 mM orthophosphoric acid.

MLK1 = MLK1 (Homo sapiens (Human), UniProt P80192); test: MLK1 kinase selectivity assay
Sequence of MLK1 (P80192 whole entry, species assumed): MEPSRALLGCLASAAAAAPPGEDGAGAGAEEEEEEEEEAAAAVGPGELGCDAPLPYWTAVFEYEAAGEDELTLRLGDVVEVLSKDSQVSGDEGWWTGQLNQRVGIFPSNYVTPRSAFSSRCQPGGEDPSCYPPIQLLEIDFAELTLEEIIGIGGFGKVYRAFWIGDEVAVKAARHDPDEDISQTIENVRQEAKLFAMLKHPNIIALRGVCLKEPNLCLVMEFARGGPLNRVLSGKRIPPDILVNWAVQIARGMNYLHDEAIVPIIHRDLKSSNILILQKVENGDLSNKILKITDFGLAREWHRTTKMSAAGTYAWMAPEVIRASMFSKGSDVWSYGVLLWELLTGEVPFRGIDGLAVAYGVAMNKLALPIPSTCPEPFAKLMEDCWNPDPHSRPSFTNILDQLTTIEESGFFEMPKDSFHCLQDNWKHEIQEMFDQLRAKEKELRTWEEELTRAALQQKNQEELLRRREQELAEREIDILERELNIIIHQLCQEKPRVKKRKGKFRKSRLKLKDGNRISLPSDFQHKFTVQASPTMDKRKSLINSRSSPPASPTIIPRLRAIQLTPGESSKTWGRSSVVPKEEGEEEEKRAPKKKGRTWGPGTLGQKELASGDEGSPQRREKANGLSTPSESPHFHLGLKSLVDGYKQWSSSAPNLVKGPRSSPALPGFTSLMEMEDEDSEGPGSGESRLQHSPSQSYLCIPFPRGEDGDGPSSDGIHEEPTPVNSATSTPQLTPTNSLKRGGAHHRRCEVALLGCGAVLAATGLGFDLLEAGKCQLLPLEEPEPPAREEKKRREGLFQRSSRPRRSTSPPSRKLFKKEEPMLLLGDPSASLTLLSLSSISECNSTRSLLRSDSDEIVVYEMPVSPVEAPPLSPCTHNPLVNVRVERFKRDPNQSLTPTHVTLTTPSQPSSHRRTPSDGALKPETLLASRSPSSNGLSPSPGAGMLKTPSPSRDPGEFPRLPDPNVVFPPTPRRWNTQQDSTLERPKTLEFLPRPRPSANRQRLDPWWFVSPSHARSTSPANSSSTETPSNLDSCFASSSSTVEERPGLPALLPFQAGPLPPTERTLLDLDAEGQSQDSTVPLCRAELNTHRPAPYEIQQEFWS
Experimental: as §1, with “MLK1” for “RIPK2”, “0-mercaptoethanol,” for “β-mercaptoethanol,”, “25.5” for “25.51”

AuroraB = AuroraB (Homo sapiens (Human), UniProt Q96GD4); test: AuroraB kinase selectivity assay
Sequence of AuroraB (Q96GD4 whole entry): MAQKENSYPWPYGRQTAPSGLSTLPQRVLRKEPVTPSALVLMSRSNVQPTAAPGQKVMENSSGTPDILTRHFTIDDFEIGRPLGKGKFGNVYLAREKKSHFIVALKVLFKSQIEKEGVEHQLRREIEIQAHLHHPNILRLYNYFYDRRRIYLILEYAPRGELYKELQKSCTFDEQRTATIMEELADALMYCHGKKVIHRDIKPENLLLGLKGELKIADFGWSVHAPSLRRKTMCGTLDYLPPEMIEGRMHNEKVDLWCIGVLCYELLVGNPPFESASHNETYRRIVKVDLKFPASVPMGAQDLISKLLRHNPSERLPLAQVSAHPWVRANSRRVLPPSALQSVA
Experimental: (§2) Aurora B (5-20 mU diluted in 50 mM Tris pH 7.5, 0.1 mM EGTA, 0.1% b-mercaptoethanol, 1 mg/ml BSA) is assayed against a substrate peptide ([…]) in a final volume of 25.5 μl containing 50 mM Tris pH 7.5, 0.05% b-mercaptoethanol, 300 μM substrate peptide, 10 mM magnesium acetate and 0.02 mM [33P-g-ATP](50-1000 cpm/pmole) and incubated for 30 min at room temperature. Assays are stopped by addition of 5 μl of 0.5 M (3%) orthophosphoric acid and then harvested onto P81 Unifilter plates with a wash buffer of 50 mM orthophosphoric acid.

HER4 = HER4 (Homo sapiens (Human), UniProt Q15303); test: HER4 kinase selectivity assay
Sequence of HER4 (Q15303 26-1308, species assumed): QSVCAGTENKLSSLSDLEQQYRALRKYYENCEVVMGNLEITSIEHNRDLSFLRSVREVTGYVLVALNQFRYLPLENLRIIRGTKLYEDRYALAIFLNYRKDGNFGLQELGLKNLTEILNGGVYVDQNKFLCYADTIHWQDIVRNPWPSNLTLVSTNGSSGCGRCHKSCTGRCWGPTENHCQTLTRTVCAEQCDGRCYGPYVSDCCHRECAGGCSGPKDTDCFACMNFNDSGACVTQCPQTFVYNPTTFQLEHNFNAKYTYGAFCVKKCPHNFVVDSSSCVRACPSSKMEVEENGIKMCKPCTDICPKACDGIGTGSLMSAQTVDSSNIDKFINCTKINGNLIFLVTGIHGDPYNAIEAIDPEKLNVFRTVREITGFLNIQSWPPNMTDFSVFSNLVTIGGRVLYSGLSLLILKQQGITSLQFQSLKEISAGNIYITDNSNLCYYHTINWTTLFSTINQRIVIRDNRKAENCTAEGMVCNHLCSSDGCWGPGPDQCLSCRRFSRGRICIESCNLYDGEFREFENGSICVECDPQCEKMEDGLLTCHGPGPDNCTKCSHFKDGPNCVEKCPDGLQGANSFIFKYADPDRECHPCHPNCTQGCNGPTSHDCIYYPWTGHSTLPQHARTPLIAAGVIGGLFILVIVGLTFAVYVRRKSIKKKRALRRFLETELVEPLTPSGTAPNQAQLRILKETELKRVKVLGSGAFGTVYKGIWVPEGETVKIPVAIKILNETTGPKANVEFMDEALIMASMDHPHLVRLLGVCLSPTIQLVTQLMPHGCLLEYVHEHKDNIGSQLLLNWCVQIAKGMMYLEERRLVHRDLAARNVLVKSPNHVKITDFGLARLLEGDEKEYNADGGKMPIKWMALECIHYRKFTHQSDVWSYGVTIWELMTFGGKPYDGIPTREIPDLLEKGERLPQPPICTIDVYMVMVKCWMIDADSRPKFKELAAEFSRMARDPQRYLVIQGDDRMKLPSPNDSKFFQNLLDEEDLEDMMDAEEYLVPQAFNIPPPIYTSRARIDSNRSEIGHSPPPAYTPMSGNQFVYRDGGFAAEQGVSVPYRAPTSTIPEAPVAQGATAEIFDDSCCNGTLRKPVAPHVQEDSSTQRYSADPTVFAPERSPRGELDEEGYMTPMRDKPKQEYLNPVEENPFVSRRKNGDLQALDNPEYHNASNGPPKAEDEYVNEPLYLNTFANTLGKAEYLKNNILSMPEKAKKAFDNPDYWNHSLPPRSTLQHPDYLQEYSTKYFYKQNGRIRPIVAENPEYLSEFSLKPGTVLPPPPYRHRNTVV
Experimental: as §1, with “HER4” for “RIPK2”, “Poly Glut Tyr” for “MBP”, “1” for “0.33”, “Poly Glut Tyr,” for “MBP,”, “0.005” for “0.02”

p38aMAPK = p38aMAPK (Homo sapiens (Human), UniProt Q16539); test: p38aMAPK kinase selectivity assay
Sequence of p38aMAPK (Q16539 whole entry): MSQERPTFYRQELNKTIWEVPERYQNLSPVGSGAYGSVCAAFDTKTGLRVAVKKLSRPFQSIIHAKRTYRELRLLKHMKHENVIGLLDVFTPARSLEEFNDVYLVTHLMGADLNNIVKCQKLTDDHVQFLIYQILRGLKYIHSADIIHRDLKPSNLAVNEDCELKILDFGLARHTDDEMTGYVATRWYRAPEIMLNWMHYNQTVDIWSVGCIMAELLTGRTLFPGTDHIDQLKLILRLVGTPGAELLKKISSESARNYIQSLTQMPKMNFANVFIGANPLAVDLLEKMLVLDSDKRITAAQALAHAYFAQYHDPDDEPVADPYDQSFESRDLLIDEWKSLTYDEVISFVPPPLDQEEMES
Experimental: SAPK 2a/p38 (5-20 mU diluted in 50 mM Tris pH 7.5, 0.1 mM EGTA, 0.1 mM Na3VO4, 0.1% b-mercaptoethanol, 1 mg/ml BSA) is assayed against MBP in a final volume of 25.5 μl containing 25 mM Tris pH 7.5, 0.1 mM EGTA, 0.33 mg/ml MBP, 10 mM magnesium acetate and 0.05 mM [33P-g-ATP] (50-1000 cpm/pmole) and incubated for 30 min at room temperature. Assays are stopped by addition of 5 μl of 0.5 M (3%) orthophosphoric acid and then harvested onto P81 Unifilter plates with a wash buffer of 50 mM orthophosphoric acid.

BTK = BTK (Homo sapiens (Human), UniProt Q06187); test: BTK kinase selectivity assay
Sequence of BTK (Q06187 whole entry, species assumed): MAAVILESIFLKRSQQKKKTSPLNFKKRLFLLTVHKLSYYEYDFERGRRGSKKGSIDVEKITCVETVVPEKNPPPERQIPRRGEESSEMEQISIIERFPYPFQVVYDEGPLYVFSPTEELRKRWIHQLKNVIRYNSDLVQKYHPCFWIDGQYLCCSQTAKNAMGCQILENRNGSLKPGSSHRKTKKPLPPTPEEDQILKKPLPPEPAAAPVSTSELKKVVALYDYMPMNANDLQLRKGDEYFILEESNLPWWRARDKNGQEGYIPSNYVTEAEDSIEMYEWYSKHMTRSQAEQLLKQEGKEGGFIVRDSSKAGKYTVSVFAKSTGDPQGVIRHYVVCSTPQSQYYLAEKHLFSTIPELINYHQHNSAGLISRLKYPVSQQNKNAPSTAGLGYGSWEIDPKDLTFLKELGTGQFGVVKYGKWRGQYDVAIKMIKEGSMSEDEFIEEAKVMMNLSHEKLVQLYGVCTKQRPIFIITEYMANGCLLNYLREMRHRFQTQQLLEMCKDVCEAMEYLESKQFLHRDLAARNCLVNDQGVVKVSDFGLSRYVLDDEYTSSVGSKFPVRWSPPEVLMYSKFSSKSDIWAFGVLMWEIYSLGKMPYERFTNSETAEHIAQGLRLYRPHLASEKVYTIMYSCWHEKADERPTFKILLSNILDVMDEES
Experimental: as §2, with “BTK” for “Aurora B”, “EGTA,” for “EGTA, 0.1% b-mercaptoethanol,”, “7.5,” for “7.5, 0.05% b-mercaptoethanol,”, “µM” for “μM”, “0.05” for “0.02”, “[33P-g-ATP] (50-1000” for “[33P-g-ATP](50-1000”

MEKK1 = MEKK1 (Homo sapiens (Human), UniProt Q13233); test: MEKK1 kinase selectivity assay
Experimental: as §1, with “MEKK1” for “RIPK2”, “0-mercaptoethanol,” for “β-mercaptoethanol,”, “25.5” for “25.51”

Sequence of PKBa (P31749 118-480 S473D): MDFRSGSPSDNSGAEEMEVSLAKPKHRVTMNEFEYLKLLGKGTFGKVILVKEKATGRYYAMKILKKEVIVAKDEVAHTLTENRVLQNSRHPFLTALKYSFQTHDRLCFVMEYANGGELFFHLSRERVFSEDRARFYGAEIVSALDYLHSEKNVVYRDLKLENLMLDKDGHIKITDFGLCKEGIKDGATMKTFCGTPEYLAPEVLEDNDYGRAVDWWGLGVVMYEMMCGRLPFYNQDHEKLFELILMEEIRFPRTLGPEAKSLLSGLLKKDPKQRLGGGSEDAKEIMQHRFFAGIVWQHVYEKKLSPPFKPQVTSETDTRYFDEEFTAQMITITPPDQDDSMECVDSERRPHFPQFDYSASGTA

Structure (SMILES) | percentage inhibition of PKBa (PKBa) | percentage inhibition of RIPK2 (RIPK2) | percentage inhibition of CHK2 (CHK2) | percentage inhibition of MLK1 (MLK1) | percentage inhibition of AuroraB (AuroraB) | percentage inhibition of HER4 (HER4) | percentage inhibition of p38aMAPK (p38aMAPK) | percentage inhibition of BTK (BTK) | percentage inhibition of MEKK1 (MEKK1)
c1cc2[nH]nc3c2c(n1)N(C1CCOCC1)CCC3 [Example 29, 6-(tetrahydro-2H-pyran-4-yl)-6,7,8,9-tetrahydro-2H-1,2,5,6-tetraazabenzo[cd]azulene] | 0 percentage | 0 percentage | 2 percentage | 0 percentage | 29 percentage | 10 percentage | 0 percentage | 0 percentage | 0 percentage
c1cc2[nH]nc3c2c(n1)N(C1CCC1)CCC3 [Example 22, 6-cyclobutyl-6,7,8,9-tetrahydro-2H-1,2,5,6-tetraazabenzo[cd]azulene] | 3 percentage | 0 percentage | 11 percentage | 0 percentage | 23 percentage | 8 percentage | 4 percentage | 0 percentage | 0 percentage
CN1CCC(N2Cc3ccccc3-c3n[nH]c4ccnc2c34)CC1 [Example 55] | 1 percentage | 7 percentage | 80 percentage | 24 percentage | 38 percentage | 0 percentage | 6 percentage | 0 percentage | 5 percentage
CC(C)n1ncc2c1CN(C1CCN(C)CC1)c1nccc3[nH]nc-2c13 [Example 68] | 0 percentage | 0 percentage | 53 percentage | 12 percentage | 19 percentage | 1 percentage | 0 percentage | 0 percentage | 0 percentage
c1cc2[nH]nc3c2c(n1)N(C1CCCC1)CCC3 [Example 23, 6-cyclopentyl-6,7,8,9-tetrahydro-2H-1,2,5,6-tetraazabenzo[cd]azulene] | 0 percentage | 0 percentage | 0 percentage | 0 percentage | 1 percentage | 3 percentage | 0 percentage | 0 percentage | 0 percentage
